One series deals with hAM1 receptor (Homo sapiens, UniProt O60895+Q16602). The series can be described thus: cAMP assay for in vitro receptor activation, hAM1-R. To be noted: cAMP assay, hAM1 receptor; read-out: hAM1R EC50. Format: cell-based. In outline: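 cAMP accumulation was measured in a monoclonal cell line stably overexpressing the hAM1 receptor. Frozen aliquots were thawed and plated at 8000 cells/well in DPBS containing 0.05% casein and 0.5 mM IBMX.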

Series [1] can be described thus: Physical stability of peptide analogues (Thioflavin T fibrillation). The series is classed as physicochemical. The following applies: maximum ThT signal normalized between hAMY maximum and buffer background; 40° C., shaking, four days; pH 7 per table title. In outline:
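Peptides in 50 mM sodium acetate pH 4 or 50 mM sodium phosphate pH 7 were preincubated 1 h, mixed with 4 μM ThT, held at 40° C with 700 rpm shaking before each read. Fluorescence (ex 450/em 480 nm) every 10 min for four days; LOESS-smoothed maximum signal normalized in percent between hAMY and buffer.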

The target in another series is T1, hAMY3 receptor (Homo sapiens, UniProt O60896+P30988).
T1 sequence (P30988 25-474): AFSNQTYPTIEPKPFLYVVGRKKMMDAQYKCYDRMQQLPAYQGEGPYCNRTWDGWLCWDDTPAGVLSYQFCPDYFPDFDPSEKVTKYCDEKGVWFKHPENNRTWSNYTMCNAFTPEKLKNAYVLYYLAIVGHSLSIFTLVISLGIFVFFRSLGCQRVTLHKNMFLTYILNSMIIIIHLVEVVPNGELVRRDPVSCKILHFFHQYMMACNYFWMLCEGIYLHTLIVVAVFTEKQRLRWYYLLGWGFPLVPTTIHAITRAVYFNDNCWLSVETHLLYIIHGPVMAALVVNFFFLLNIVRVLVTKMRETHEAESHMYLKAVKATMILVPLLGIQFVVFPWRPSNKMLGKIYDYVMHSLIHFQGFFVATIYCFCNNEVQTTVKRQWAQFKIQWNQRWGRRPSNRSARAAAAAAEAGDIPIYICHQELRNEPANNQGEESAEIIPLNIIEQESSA
T1 sequence (O60896 24-148 partner): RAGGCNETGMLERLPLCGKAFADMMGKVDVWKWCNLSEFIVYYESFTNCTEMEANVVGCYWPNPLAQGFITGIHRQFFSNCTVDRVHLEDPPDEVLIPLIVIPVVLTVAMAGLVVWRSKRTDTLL
The series is described as follows: cAMP assay for in vitro receptor activation, hAMY3-R. Format: cell-based. To be noted: cAMP assay, hAMY3 receptor; read-out: hAMY3R EC50. The method, boiled down: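 Receptor activation was measured as cAMP accumulation in a monoclonal cell line stably overexpressing hAMY3. Stimulation with graded doses lasted 30 min at room temperature in the presence of 0.5 mM IBMX, with human amylin as positive control.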

The structures appear in SMILES notation. Numbered stars: 1 amine (or outer) side, 2 acyl side, 3 side chain; on linkers, the order of the positions; unused ones are H or OH. Bridge positions count the residues as written; N and C are the ends. Square brackets hold non-standard residues; d marks the D form. Peptide text beside a SMILES is read from it. * marks the point of attachment. C20 diacid = O=C(O)CCCCCCCCCCCCCCCCCCC(=O)*; γGlu = O=C(O)[C@H](CCC(=O)[*:2])N[*:1]; Hyp = O=C(O)[C@@H]1C[C@@H](O)CN1

Data on 6 compounds can be found in patent US12139520B2 (priority 2020, dated 2024).

hAM1 receptor, sequence (Q16602 23-461): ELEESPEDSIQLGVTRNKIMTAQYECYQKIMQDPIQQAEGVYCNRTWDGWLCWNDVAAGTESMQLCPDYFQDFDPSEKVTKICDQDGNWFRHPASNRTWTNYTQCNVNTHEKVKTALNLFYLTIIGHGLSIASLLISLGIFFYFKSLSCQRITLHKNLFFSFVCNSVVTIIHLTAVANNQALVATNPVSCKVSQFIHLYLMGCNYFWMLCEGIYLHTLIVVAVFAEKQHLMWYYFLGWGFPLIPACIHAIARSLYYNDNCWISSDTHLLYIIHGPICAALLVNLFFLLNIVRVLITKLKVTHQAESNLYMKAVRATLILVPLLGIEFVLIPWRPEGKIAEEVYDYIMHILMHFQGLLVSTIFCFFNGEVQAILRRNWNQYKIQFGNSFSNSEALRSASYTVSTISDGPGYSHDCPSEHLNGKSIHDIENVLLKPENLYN
hAM1 receptor, sequence (O60895 43-175 partner): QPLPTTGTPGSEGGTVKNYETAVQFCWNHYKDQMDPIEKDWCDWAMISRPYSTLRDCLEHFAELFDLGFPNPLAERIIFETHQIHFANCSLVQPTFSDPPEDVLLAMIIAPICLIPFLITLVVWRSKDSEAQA

For `CC[C@H](C)[C@H](NC(=O)[C@H](CCC(N)=O)NC(=O)[C@H](Cc1c[nH]cn1)NC(=O)[C@H](C)NC(=O)[C@H](CC(C)C)NC(=O)[C@H](CCCNC(=N)N)NC(=O)[C@H](CCC(N)=O)NC(=O)[C@@H](NC(=O)[C@@H](NC(=O)[C@@H]1CSSC[C@H](NC(=O)CN)C(=O)N[C@@H](CCCNC(=N)N)C(=O)N[C@@H]([C@@H](C)O)C(=O)NCC(=O)N[C@@H]([C@@H](C)O)C(=O)N1)[C@@H](C)O)C(C)C)C(=O)N[C@@H](Cc1ccc(O)cc1)C(=O)N[C@@H](CCC(N)=O)C(=O)N[C@@H](Cc1ccccc1)C(=O)N[C@H](C(=O)N[C@@H](CC(N)=O)C(=O)N[C@@H](CCCCN)C(=O)N[C@@H](CC(=O)O)C(=O)N[C@@H](CCCCN)C(=O)N[C@@H](CC(=O)O)C(=O)N[C@@H](CC(N)=O)C(=O)N[C@H](C(=O)N[C@@H](C)C(=O)N1CCC[C@H]1C(=O)N[C@@H](CCCNC(=N)N)C(=O)N[C@@H](CO)C(=O)N[C@@H](CCCCN)C(=O)N[C@H](C(=O)N[C@@H](CO)C(=O)N1CCC[C@H]1C(=O)N[C@@H](CCC(N)=O)C(=O)N[C@@H](CCC(N)=O)C(=O)N1C[C@H](O)C[C@H]1C(N)=O)[C@@H](C)CC)C(C)C)[C@@H](C)O` [compound 232] (H-GCRTGTCTVQRLAHQIYQFTNKDKDNVAPRSKISPQQ[Hyp]-NH2; disulfide 2-7; N-terminus assumed), the EC50 at hAM1 receptor was more than 5000 nM. The “Max ThT signal (%)” value in series [1] worked out at 1.200%.

Consider `CC[C@H](C)[C@H](NC(=O)[C@H](CCC(N)=O)NC(=O)[C@H](Cc1c[nH]cn1)NC(=O)[C@H](C)NC(=O)[C@H](CC(C)C)NC(=O)[C@H](Cc1c[nH]c2ccccc12)NC(=O)[C@H](CCC(N)=O)NC(=O)[C@@H](NC(=O)[C@@H](NC(=O)[C@@H]1CSSC[C@H](NC(=O)CN)C(=O)N[C@@H](CCCNC(=N)N)C(=O)N[C@@H]([C@@H](C)O)C(=O)NCC(=O)N[C@@H]([C@@H](C)O)C(=O)N1)[C@@H](C)O)C(C)C)C(=O)N[C@@H](Cc1ccc(O)cc1)C(=O)N[C@@H](CCC(N)=O)C(=O)N[C@@H](Cc1ccccc1)C(=O)N[C@H](C(=O)N[C@@H](CC(=O)O)C(=O)N[C@@H](CCCCN)C(=O)N[C@@H](CC(=O)O)C(=O)N[C@@H](CCCCN)C(=O)N[C@@H](CC(=O)O)C(=O)N[C@@H](CC(N)=O)C(=O)N[C@H](C(=O)N[C@@H](C)C(=O)N1CCC[C@H]1C(=O)N[C@@H](CCCNC(=N)N)C(=O)N[C@@H](CO)C(=O)N[C@@H](CCCCN)C(=O)N[C@H](C(=O)NCC(=O)N1CCC[C@H]1C(=O)N[C@@H](CCC(N)=O)C(=O)NCC(=O)N[C@@H](Cc1ccc(O)cc1)C(N)=O)C(C)C)C(C)C)[C@@H](C)O` [compound 344] (H-GCRTGTCTVQWLAHQIYQFTDKDKDNVAPRSKVGPQGY-NH2; disulfide 2-7; N-terminus assumed), for which the EC50 at hAM1 receptor was more than 5000 nM. Besides, the “Max ThT signal (%)” value in series [1] is recorded as 13.350%.

Regarding `CC[C@H](C)[C@H](NC(=O)[C@H](CCC(N)=O)NC(=O)[C@H](Cc1c[nH]cn1)NC(=O)[C@H](C)NC(=O)[C@H](CC(C)C)NC(=O)[C@H](CCCNC(=N)N)NC(=O)[C@H](CCC(N)=O)NC(=O)[C@@H](NC(=O)[C@@H](NC(=O)[C@@H]1CSSC[C@H](NC(=O)[C@@H](N)CCCCN)C(=O)N[C@@H](CC(N)=O)C(=O)N[C@@H]([C@@H](C)O)C(=O)N[C@@H](C)C(=O)N[C@@H]([C@@H](C)O)C(=O)N1)[C@@H](C)O)C(C)C)C(=O)N[C@@H](Cc1ccc(O)cc1)C(=O)N[C@@H](CCC(N)=O)C(=O)N[C@@H](Cc1ccccc1)C(=O)N[C@H](C(=O)N[C@@H](CC(=O)O)C(=O)N[C@@H](CCCCN)C(=O)N[C@@H](CC(=O)O)C(=O)N[C@@H](CCCCN)C(=O)N[C@@H](CC(=O)O)C(=O)N[C@@H](CC(N)=O)C(=O)N[C@H](C(=O)N1CCC[C@H]1C(=O)N1CCC[C@H]1C(=O)N[C@H](C(=O)N[C@@H](CC(N)=O)C(=O)N[C@H](C(=O)NCC(=O)N[C@@H](CO)C(=O)N[C@@H](CC(N)=O)C(=O)NCC(=O)N1C[C@H](O)C[C@H]1C(N)=O)C(C)C)[C@@H](C)O)C(C)C)[C@@H](C)O` [compound 30] (H-KCNTATCTVQRLAHQIYQFTDKDKDNVPPTNVGSNG[Hyp]-NH2; disulfide 2-7; N-terminus assumed), the results for the EC50 on hAMY3 receptor and on hAM1 receptor were 0.008 nM and more than 5000 nM, respectively.

On to `CC[C@H](C)[C@H](NC(=O)[C@H](CCC(N)=O)NC(=O)[C@H](Cc1c[nH]cn1)NC(=O)[C@H](C)NC(=O)[C@H](CC(C)C)NC(=O)[C@H](CCCNC(=N)N)NC(=O)[C@@H](NC(=O)[C@@H](NC(=O)[C@@H](NC(=O)[C@@H]1CSSC[C@H](NC(=O)[C@H](CCCCN)NC(=O)CC[C@H](NC(=O)CCCCCCCCCCCCCCCCCCC(=O)O)C(=O)O)C(=O)N[C@@H](CC(N)=O)C(=O)N[C@@H]([C@@H](C)O)C(=O)N[C@@H](C)C(=O)N[C@@H]([C@@H](C)O)C(=O)N1)[C@@H](C)O)C(C)C)[C@@H](C)CC)C(=O)N[C@@H](Cc1ccc(O)cc1)C(=O)N[C@@H](CCC(N)=O)C(=O)N[C@@H](Cc1ccccc1)C(=O)N[C@H](C(=O)N[C@@H](CC(=O)O)C(=O)N[C@@H](CCCCN)C(=O)N[C@@H](CC(=O)O)C(=O)N[C@@H](CCCCN)C(=O)N[C@@H](CC(=O)O)C(=O)N[C@@H](CC(N)=O)C(=O)N[C@H](C(=O)N[C@@H](C)C(=O)N1CCC[C@H]1C(=O)N1CCC[C@H]1C(=O)N[C@H](C(=O)N[C@@H](CC(N)=O)C(=O)N[C@H](C(=O)NCC(=O)N[C@@H](CO)C(=O)N[C@@H](CC(N)=O)C(=O)NCC(=O)N1C[C@H](O)C[C@H]1C(N)=O)C(C)C)[C@@H](C)O)C(C)C)[C@@H](C)O` [compound 159] ({C20 diacid-γGlu}-KCNTATCTVIRLAHQIYQFTDKDKDNVAPPTNVGSNG[Hyp]-NH2; disulfide 2-7), for which the EC50 on hAMY3 receptor is 0.048 nM; at hAM1 receptor, more than 5000 nM.

Consider `CC[C@H](C)[C@H](NC(=O)[C@H](C)NC(=O)CNC(=O)[C@H](Cc1ccccc1)NC(=O)[C@H](CC(N)=O)NC(=O)[C@H](CC(N)=O)NC(=O)[C@H](CO)NC(=O)[C@H](CO)NC(=O)[C@H](Cc1c[nH]cn1)NC(=O)[C@@H](NC(=O)[C@H](CC(C)C)NC(=O)[C@H](Cc1ccccc1)NC(=O)[C@H](CC(N)=O)NC(=O)[C@H](C)NC(=O)[C@H](CC(C)C)NC(=O)[C@H](CCCNC(=N)N)NC(=O)[C@H](CCC(N)=O)NC(=O)[C@@H](NC(=O)[C@H](C)NC(=O)[C@@H]1CSSC[C@H](NC(=O)[C@@H](N)CCCCN)C(=O)N[C@@H](CC(N)=O)C(=O)N[C@@H]([C@@H](C)O)C(=O)N[C@@H](C)C(=O)N[C@@H]([C@@H](C)O)C(=O)N1)[C@@H](C)O)C(C)C)C(=O)N[C@@H](CC(C)C)C(=O)N1CCC[C@H]1C(=O)N[C@@H](CO)C(=O)N[C@H](C(=O)N[C@@H](CCCCN)C(=O)N[C@H](C(=O)NCC(=O)N1CCC[C@H]1C(=O)N[C@@H](CC(N)=O)C(=O)NCC(=O)N[C@@H](Cc1ccc(O)cc1)C(N)=O)C(C)C)[C@@H](C)O` [compound 149] (H-KCNTATCATQRLANFLVHSSNNFGAILPSTKVGPNGY-NH2; disulfide 2-7; N-terminus assumed), for which the EC50 was 0.04 nM on hAMY3 receptor and more than 5000 nM at hAM1 receptor.

For `CC[C@H](C)[C@H](NC(=O)[C@H](CCC(N)=O)NC(=O)[C@H](CCC(=O)O)NC(=O)[C@H](C)NC(=O)[C@H](CC(C)C)NC(=O)[C@H](CCCNC(=N)N)NC(=O)[C@H](CCC(N)=O)NC(=O)[C@@H](NC(=O)[C@@H](NC(=O)[C@@H]1CSSC[C@H](NC(=O)[C@H](CCCCN)NC(=O)CC[C@H](NC(=O)CCCCCCCCCCCCCCCCCCC(=O)O)C(=O)O)C(=O)N[C@@H](CC(N)=O)C(=O)N[C@@H]([C@@H](C)O)C(=O)N[C@@H](C)C(=O)N[C@@H]([C@@H](C)O)C(=O)N1)[C@@H](C)O)C(C)C)C(=O)N[C@@H](Cc1ccc(O)cc1)C(=O)N[C@@H](CCC(N)=O)C(=O)N[C@@H](Cc1ccccc1)C(=O)N[C@H](C(=O)N[C@@H](CC(=O)O)C(=O)N[C@@H](CCCCN)C(=O)N[C@@H](CC(=O)O)C(=O)N[C@@H](CCCCN)C(=O)N[C@@H](C)C(=O)N[C@@H](CC(N)=O)C(=O)N[C@H](C(=O)N[C@@H](C)C(=O)N1CCC[C@H]1C(=O)N1CCC[C@H]1C(=O)N[C@H](C(=O)N[C@@H](CC(N)=O)C(=O)N[C@H](C(=O)NCC(=O)N[C@@H](CO)C(=O)N[C@@H](CC(N)=O)C(=O)NCC(=O)N1C[C@H](O)C[C@H]1C(N)=O)C(C)C)[C@@H](C)O)C(C)C)[C@@H](C)O` [compound 108] ({C20 diacid-γGlu}-KCNTATCTVQRLAEQIYQFTDKDKANVAPPTNVGSNG[Hyp]-NH2; disulfide 2-7), the EC50 on hAMY3 receptor is 0.019 nM; at hAM1 receptor, more than 5000 nM.
